In ChEMBL document CHEMBL4507266, “Data for DCP probe BAY-784” (2021):

Tests used:
[1] = test system: Tyrosine-protein kinase ABL1 (Homo sapiens), P00519 [F317I]; details: Compound concentration 1000.0 nM
[2] = biological target: Activin receptor type-2B (Homo sapiens) (UniProt Q13705); details: Compound concentration 1000.0 nM
[3] = biological target: ALK tyrosine kinase receptor (Homo sapiens) (UniProt Q9UM73); details: Compound concentration 1000.0 nM
[4] = biological target: Casein kinase I isoform alpha (Homo sapiens) (UniProt P48729); details: Compound concentration 1000.0 nM
[5] = biological target: Casein kinase I isoform alpha-like (Homo sapiens) (UniProt Q8N752); details: Compound concentration 1000.0 nM
[6] = biological target: Casein kinase I isoform gamma-2 (Homo sapiens) (UniProt P78368); details: Compound concentration 1000.0 nM
[7] = biological target: Serine/threonine-protein kinase DCLK1 (Homo sapiens) (UniProt O15075); details: Compound concentration 1000.0 nM
[8] = test system: Epidermal growth factor receptor (Homo sapiens), P00533 [L858R]; details: Compound concentration 1000.0 nM
[9] = test system: Epidermal growth factor receptor (Homo sapiens), P00533 [L858R,T790M]; details: Compound concentration 1000.0 nM
[10] = test system: Epidermal growth factor receptor (Homo sapiens), P00533 [T790M]; details: Compound concentration 1000.0 nM
[11] = test system: Receptor-type tyrosine-protein kinase FLT3 (Homo sapiens), P36888 [UNDEFINED MUTATION]; details: Compound concentration 1000.0 nM
[12] = test system: Receptor-type tyrosine-protein kinase FLT3 (Homo sapiens), P36888 [K663Q]; details: Compound concentration 1000.0 nM
[13] = biological target: Rhodopsin kinase GRK1 (Homo sapiens) (UniProt Q15835); details: Compound concentration 1000.0 nM
[14] = biological target: Homeodomain-interacting protein kinase 3 (Homo sapiens) (UniProt Q9H422); details: Compound concentration 1000.0 nM
[15] = biological target: Tyrosine-protein kinase Lyn (Homo sapiens) (UniProt P07948); details: Compound concentration 1000.0 nM
[16] = biological target: Serine/threonine-protein kinase Nek1 (Homo sapiens) (UniProt Q96PY6); details: Compound concentration 1000.0 nM
[17] = biological target: Serine/threonine-protein kinase Nek4 (Homo sapiens) (UniProt P51957); details: Compound concentration 1000.0 nM
[18] = biological target: Serine/threonine-protein kinase Nek6 (Homo sapiens) (UniProt Q9HC98); details: Compound concentration 1000.0 nM
[19] = biological target: Serine/threonine-protein kinase PAK 6 (Homo sapiens) (UniProt Q9NQU5); details: Compound concentration 1000.0 nM
[20] = biological target: Platelet-derived growth factor receptor beta (Homo sapiens) (UniProt P09619); details: Compound concentration 1000.0 nM
[21] = biological target: Serine/threonine-protein kinase PknB (Mycobacterium tuberculosis) (UniProt P9WI81); details: Compound concentration 1000.0 nM
[22] = biological target: Ribosomal protein S6 kinase alpha-1 (Homo sapiens) (UniProt Q15418); details: Compound concentration 1000.0 nM
[23] = biological target: Mitogen-activated protein kinase kinase kinase 7 (Homo sapiens) (UniProt O43318); details: Compound concentration 1000.0 nM
[24] = biological target: Testis-specific serine/threonine-protein kinase 3 (Homo sapiens) (UniProt Q96PN8); details: Compound concentration 1000.0 nM
[25] = biological target: Non-receptor tyrosine-protein kinase TYK2 (Homo sapiens) (UniProt P29597); details: Compound concentration 1000.0 nM
[26] = biological target: Serine/threonine-protein kinase VRK2 (Homo sapiens) (UniProt Q86Y07); details: Compound concentration 1000.0 nM
[27] = biological target: Serine/threonine-protein kinase WNK2 (Homo sapiens) (UniProt Q9Y3S1); details: Compound concentration 1000.0 nM
[28] = biological target: 5-hydroxytryptamine receptor 2B (Homo sapiens) (UniProt P41595); details: Compound concentration 10.0 uM
[29] = biological target: Kappa-type opioid receptor (Homo sapiens) (UniProt P41145); details: Compound concentration 10.0 uM
[30] = biological target: Histamine H3 receptor (Homo sapiens) (UniProt Q9Y5N1); details: Compound concentration 10.0 uM
[31] = biological target: T1, Muscarinic acetylcholine receptor M2 (Homo sapiens) (UniProt P08172); details: Compound concentration 10.0 uM
T1 sequence (whole entry): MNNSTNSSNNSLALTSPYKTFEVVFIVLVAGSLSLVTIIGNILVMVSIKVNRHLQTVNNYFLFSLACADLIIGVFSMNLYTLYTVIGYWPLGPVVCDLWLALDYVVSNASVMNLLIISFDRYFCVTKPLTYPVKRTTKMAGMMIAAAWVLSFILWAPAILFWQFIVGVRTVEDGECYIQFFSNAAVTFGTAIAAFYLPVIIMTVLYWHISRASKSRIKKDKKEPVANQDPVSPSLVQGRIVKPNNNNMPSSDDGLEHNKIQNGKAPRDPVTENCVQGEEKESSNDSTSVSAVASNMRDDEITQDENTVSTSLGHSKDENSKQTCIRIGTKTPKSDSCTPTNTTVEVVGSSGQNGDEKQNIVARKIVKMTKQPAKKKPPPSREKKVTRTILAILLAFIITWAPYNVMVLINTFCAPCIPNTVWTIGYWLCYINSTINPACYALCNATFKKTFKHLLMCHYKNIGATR

[32] = biological target: T2, Muscarinic acetylcholine receptor M5 (Homo sapiens) (UniProt P08912); details: Compound concentration 10.0 uM
T2 sequence (whole entry): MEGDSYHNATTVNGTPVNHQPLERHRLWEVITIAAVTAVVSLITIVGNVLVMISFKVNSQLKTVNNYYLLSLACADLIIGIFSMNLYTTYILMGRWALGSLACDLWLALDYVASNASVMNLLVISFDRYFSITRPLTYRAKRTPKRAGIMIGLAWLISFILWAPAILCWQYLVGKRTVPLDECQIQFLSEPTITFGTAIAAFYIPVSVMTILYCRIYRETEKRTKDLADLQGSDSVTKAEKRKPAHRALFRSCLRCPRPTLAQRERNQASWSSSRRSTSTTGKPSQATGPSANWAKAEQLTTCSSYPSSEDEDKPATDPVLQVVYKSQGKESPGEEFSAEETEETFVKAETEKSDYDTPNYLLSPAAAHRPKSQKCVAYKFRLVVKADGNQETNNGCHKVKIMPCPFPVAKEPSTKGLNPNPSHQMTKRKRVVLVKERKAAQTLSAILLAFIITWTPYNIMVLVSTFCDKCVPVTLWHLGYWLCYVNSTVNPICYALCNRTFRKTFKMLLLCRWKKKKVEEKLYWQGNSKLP

Serine/threonine-protein kinase WNK2 (Homo sapiens), sequence (Q9Y3S1 whole entry): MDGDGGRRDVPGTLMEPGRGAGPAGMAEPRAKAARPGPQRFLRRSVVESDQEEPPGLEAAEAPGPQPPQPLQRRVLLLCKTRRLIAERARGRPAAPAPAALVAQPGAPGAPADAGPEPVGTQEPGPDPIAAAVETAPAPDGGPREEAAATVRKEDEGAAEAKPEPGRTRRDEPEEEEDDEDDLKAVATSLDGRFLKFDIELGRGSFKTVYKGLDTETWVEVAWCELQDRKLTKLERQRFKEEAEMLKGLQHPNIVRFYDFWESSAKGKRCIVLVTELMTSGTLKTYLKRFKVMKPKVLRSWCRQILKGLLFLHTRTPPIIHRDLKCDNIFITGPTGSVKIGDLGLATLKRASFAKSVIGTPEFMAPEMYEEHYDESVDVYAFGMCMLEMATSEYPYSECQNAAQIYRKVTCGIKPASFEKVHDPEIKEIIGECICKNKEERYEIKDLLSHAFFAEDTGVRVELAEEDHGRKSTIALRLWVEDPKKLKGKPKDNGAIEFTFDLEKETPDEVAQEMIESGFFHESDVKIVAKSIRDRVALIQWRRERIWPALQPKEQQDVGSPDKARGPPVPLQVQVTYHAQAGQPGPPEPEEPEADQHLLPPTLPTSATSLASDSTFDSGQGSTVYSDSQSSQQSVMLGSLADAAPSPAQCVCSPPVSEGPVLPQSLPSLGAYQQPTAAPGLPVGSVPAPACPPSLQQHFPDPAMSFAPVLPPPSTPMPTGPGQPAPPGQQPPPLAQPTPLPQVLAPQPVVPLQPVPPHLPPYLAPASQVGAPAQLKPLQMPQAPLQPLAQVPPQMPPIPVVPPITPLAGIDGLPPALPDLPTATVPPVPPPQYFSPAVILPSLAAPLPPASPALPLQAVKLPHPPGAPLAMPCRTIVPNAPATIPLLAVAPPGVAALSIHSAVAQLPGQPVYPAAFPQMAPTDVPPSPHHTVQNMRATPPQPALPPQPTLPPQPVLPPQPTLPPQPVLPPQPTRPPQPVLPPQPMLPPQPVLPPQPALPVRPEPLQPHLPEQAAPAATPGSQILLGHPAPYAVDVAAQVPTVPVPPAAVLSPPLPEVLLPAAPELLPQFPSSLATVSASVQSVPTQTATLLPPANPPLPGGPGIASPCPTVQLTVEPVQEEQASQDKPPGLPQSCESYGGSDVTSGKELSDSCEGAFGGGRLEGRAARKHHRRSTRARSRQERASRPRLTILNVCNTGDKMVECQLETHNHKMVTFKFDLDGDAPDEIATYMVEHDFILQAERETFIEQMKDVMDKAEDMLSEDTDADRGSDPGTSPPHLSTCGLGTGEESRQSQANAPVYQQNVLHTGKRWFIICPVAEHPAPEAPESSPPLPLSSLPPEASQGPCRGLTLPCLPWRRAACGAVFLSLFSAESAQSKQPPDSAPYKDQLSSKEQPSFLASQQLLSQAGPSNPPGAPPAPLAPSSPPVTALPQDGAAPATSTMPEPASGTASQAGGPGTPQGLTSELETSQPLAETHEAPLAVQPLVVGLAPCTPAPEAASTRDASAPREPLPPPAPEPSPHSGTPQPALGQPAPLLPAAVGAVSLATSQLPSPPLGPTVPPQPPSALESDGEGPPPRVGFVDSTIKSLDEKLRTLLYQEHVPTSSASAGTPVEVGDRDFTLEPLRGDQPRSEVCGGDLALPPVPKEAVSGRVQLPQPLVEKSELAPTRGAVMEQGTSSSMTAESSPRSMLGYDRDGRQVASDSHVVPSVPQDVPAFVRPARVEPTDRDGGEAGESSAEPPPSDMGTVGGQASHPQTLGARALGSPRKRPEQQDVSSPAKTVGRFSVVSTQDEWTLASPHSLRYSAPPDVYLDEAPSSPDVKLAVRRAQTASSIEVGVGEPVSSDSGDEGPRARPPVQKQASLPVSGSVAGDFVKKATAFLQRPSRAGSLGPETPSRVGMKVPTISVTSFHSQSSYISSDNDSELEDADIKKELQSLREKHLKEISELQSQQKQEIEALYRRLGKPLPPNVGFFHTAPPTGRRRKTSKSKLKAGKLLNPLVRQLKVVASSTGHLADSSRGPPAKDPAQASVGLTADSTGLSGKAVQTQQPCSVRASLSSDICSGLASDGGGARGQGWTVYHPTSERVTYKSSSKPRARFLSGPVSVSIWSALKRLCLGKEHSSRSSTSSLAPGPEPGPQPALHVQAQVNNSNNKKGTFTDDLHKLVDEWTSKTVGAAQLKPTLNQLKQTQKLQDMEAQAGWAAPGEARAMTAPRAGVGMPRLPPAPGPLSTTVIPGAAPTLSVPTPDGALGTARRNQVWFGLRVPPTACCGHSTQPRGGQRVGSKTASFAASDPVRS
Rhodopsin kinase GRK1 (Homo sapiens), sequence (Q15835 whole entry): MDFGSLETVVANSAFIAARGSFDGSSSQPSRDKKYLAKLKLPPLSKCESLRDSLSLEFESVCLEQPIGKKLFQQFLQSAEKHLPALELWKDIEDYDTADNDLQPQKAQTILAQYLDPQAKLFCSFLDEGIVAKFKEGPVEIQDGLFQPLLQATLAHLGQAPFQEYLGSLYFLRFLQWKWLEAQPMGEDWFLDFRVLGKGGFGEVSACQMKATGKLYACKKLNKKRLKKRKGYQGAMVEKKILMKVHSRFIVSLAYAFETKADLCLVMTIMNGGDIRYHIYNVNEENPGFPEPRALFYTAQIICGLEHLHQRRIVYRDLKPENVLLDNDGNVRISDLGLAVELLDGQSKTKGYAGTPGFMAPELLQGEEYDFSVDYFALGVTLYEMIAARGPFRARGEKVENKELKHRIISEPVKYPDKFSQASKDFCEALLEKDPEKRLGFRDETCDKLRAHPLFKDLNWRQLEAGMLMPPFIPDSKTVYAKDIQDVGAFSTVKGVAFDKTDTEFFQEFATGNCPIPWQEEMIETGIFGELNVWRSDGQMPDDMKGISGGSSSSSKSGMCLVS
Platelet-derived growth factor receptor beta (Homo sapiens), sequence (P09619 whole entry): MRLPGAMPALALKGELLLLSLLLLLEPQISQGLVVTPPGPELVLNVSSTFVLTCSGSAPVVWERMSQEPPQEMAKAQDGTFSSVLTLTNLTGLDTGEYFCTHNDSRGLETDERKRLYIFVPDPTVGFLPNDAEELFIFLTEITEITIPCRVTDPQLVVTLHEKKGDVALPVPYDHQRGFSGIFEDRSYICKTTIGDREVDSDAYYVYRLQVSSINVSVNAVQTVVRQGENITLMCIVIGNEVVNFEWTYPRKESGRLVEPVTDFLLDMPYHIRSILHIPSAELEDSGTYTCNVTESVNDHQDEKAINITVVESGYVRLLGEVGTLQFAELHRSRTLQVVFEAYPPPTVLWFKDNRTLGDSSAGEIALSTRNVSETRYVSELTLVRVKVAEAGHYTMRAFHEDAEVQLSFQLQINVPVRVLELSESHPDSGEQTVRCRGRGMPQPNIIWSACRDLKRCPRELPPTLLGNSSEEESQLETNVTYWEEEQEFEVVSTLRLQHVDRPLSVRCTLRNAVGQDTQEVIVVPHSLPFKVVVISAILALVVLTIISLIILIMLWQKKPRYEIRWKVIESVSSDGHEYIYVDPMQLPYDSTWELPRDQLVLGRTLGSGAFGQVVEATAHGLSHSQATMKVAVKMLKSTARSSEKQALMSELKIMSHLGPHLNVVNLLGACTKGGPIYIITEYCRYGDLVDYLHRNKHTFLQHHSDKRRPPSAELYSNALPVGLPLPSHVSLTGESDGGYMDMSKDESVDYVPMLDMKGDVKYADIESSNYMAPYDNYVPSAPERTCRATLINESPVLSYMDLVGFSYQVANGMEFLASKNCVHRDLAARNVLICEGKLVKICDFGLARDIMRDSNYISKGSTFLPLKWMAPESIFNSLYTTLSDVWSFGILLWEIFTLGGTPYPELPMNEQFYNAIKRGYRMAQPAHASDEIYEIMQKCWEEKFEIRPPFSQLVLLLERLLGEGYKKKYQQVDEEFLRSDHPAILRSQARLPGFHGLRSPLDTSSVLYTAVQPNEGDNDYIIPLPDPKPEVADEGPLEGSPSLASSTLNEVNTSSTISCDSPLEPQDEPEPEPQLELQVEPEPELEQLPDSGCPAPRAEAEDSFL
Non-receptor tyrosine-protein kinase TYK2 (Homo sapiens), sequence (P29597 whole entry): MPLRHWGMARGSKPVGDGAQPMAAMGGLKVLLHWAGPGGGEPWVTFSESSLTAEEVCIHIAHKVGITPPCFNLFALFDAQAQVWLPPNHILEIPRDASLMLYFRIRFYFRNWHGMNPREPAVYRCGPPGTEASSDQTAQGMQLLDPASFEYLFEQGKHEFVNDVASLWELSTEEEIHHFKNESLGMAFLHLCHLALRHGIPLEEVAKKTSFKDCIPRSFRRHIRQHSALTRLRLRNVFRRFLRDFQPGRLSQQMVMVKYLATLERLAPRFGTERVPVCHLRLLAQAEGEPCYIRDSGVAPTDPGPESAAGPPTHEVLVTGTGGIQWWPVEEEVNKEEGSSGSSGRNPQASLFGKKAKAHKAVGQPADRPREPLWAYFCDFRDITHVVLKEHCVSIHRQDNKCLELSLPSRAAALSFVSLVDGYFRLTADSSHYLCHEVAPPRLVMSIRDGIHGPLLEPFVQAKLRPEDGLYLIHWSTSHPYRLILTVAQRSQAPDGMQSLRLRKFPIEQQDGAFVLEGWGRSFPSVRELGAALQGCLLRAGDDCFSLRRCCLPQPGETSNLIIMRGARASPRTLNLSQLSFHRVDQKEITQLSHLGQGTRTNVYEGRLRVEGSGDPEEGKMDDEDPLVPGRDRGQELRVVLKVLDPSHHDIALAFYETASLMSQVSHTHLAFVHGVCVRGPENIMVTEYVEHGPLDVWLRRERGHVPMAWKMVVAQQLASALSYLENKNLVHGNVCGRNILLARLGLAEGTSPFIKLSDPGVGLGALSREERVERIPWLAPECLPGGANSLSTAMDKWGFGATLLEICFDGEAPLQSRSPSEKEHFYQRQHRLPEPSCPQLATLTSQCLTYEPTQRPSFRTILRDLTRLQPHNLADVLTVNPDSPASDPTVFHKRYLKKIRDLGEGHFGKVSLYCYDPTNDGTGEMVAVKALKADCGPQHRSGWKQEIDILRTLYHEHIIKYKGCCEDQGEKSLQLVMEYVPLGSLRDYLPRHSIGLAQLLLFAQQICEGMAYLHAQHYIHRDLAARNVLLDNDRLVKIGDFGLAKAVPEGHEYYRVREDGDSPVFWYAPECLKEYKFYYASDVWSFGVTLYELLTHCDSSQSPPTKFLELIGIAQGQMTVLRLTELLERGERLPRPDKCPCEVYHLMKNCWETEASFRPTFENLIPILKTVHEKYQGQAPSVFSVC

| SMILES | residual activity [1] [%] | residual activity [2] [%] | residual activity [3] [%] | residual activity [4] [%] | residual activity [5] [%] | residual activity [6] [%] | residual activity [7] [%] | residual activity [8] [%] | residual activity [9] [%] | residual activity [10] [%] | residual activity [11] [%] | residual activity [12] [%] | residual activity [13] [%] | residual activity [14] [%] | residual activity [15] [%] | residual activity [16] [%] | residual activity [17] [%] | residual activity [18] [%] | residual activity [19] [%] | residual activity [20] [%] | also measured |
| --- | --- | --- | --- | --- | --- | --- | --- | --- | --- | --- | --- | --- | --- | --- | --- | --- | --- | --- | --- | --- | --- |
| O=C(NCc1ncc(C(F)(F)F)cc1Cl)c1ccc2c(c1)C1(CCS(=O)(=O)CC1)[C@@H](C1CC1)N2S(=O)(=O)c1ccc(F)cc1 [BAY-786] | 71 | 100 | 73 | 81 | 100 | 85 | 74 | 100 | 75 | 100 | 58 | 100 | 79 | 81 | 100 | 96 | 99 | 95 | 100 | 77 | residual activity [21]: 84%; residual activity [22]: 100%; residual activity [23]: 63%; residual activity [24]: 97%; residual activity [25]: 46%; residual activity [26]: 98%; residual activity [27]: 0%; inhibition [28]: -2.32%; inhibition [29]: 4.54%; inhibition [30]: 6.92%; inhibition [31]: 12.5%; inhibition [32]: -1.92% |
| O=C(NCc1ncc(C(F)(F)F)cc1Cl)c1ccc2c(c1)C1(CCS(=O)(=O)CC1)[C@H](C1CC1)N2S(=O)(=O)c1ccc(F)cc1 [BAY-784] | 83 | 90 | 98 | 92 | 95 | 100 | 83 | 94 | 95 | 100 | 76 | 100 | 80 | 82 | 100 | 100 | 99 | 100 | 100 | 92 | residual activity [21]: 96%; residual activity [22]: 99%; residual activity [23]: 80%; residual activity [24]: 87%; residual activity [25]: 92%; residual activity [26]: 95%; residual activity [27]: 97%; inhibition [28]: -2.53%; inhibition [29]: 14.4%; inhibition [30]: -8.26%; inhibition [31]: 8.38%; inhibition [32]: -6.43% |
